Peptide text beside a SMILES is read from it.
What was measured:
[1] = tested on: E. coli ATCC 25922; experiment: MIC, broth microdilution (CLSI), ATCC reference strain; format: cell-based, Escherichia coli; conditions: E. coli ATCC 25922
Protocol: (§1) The minimum inhibitory concentration (MIC) of synthetic peptides was determined using the broth microdilution method in cation-adjusted Mueller-Hinton broth (MHB2 – Sigma-Aldrich, St. Louis, MO, United States), according to the recommendations of the Clinical and Laboratory Standards Institute ([CLSI, 2012]), against four reference strains, namely, P. aeruginosa ATCC 27853, E. coli ATCC 25922, S. aureus ATCC 25923 and Enterococcus faecalis ATCC 29212. MIC values of peptide 3.1-PP4 were also determined against MDR clinical isolates of P. aeruginosa (PA002, PA004, Pa3, Pa4), E. coli (Ec1, Ec2, EC001, EC002, EC003) and K. pneumoniae (KP004, KP007, KP010). The peptides were tested in the concentration range of 1–1024 μg/mL. The minimum bactericidal concentration (MBC) was determined as previously reported ([Bessa et al., 2018]). According to CLSI guidelines for antimicrobial susceptibility testing, MIC values were determined for all peptides against ATCC reference strains of two Gram-positive (S. aureus ATCC 25923 and E. faecalis ATCC 29212), and two Gram-negative (P. aeruginosa ATCC 27853 and E. coli ATCC 25922) bacterial species, and are shown in Table 2.

[2] = tested on: P. aeruginosa ATCC 27853; experiment: as above; format: cell-based, Pseudomonas aeruginosa
Protocol: as §1

[3] = tested on: HFF-1 cells; format: cell-based, human; conditions: 72 h
Protocol: Immortalized human foreskin fibroblasts (HFF-1) were grown as a monolayer from passage number 8–16. For routine maintenance, HFF-1 cells were cultured in Dulbecco’s Modified Eagle Medium (DMEM, from Cell Lines Service) supplemented with 15% fetal bovine serum (FBS, from CLS) and 1% antibiotic/antimycotic solution (100 units/mL of penicillin, 100 μg/mL of streptomycin and 0.25 μg/mL of amphotericin B, from Sigma-Aldrich, St. Louis, MO, United States) at 37°C in an humidified atmosphere with 5% CO2. Cells were harvested by trypsinization [0.25% (w/v) trypsin-EDTA4Na, Sigma-Aldrich, St. Louis, MO, United States] twice a week.
The cytotoxicity of synthetic peptides to HFF-1 cells was evaluated using the standard MTT assay. Briefly, cells were seeded at a density of 8 × 10^4 cells/well onto 96-well plate and incubated at 37°C in a 5% CO2 atmosphere. Cells were allowed to grow for 48 h, and serially diluted peptide solutions (0.78–100 μM) were added to the wells. Then, cells were incubated for 72 h at 37°C, after which wells were washed once with phosphate buffered saline (PBS, Sigma-Aldrich, St. Louis, MO, United States), followed by addition of a 0.45 mg/mL MTT solution to each well. Crystals were allowed to form for 1.5 h. Reaction was stopped by rejecting the medium and addition of dimethylsulfoxide (DMSO, Sigma-Aldrich, St. Louis, MO, United States). Absorbance was read at 570 nm (Biotek PowerWave XS).
At the end of the cytotoxicity assays, the number of viable cells was never below that of initially plated cells. As such, data are represented as peptide concentrations causing 50% growth inhibition (IC50) on HFF-1 cells, rather than as lethal dosis values. IC50 values thus obtained are also included in Table 2.

[4] = tested on: preformed biofilms of MDR P. aeruginosa isolates; experiment: Effect on 24 h preformed biofilms (OD600 of planktonic phase); format: cell-based, Pseudomonas aeruginosa; conditions: 20 × MIC, vs non-treated biofilm
Protocol: (§2) The efficacy of peptide 3.1-PP4 on 24 h preformed biofilms of PA002, PA004, KP004, KP007, and KP010 was also evaluated ([Gomes et al., 2014]). Briefly, biofilms were grown in TSB from a starting inoculum of 1 × 10^6 CFU/mL in 96-well microtiter plates. […] The optical density at 600 nm (OD600) was measured at time 0 and after incubation for 24 h at 37°C. The reduction in the biofilm proliferation was calculated in comparison to the respective non-treated biofilms. Two independent experiments were performed in triplicate.
(§3) In the case of control biofilms, the second 24 h growth period occurred in the absence of the peptide. Based on the apparent higher efficiency of peptide 3.1-PP4 to inhibit the formation of K. pneumoniae than P. aeruginosa biofilms, only two MDR isolates of the latter were included in this assay, whereas three MDR K. pneumoniae were tested. Optical density of the planktonic phase, as a measure of biofilm proliferation, was reduced in all peptide-treated biofilms, ranging from 3 to 21% reduction on P. aeruginosa isolates, and from 34 to 56% reduction on K. pneumoniae isolates (Table 4).

[5] = tested on: preformed biofilms of MDR K. pneumoniae isolates; experiment: as above; format: cell-based, Klebsiella pneumoniae; conditions: 20 × MIC, vs non-treated biofilm
Protocol: as §2, §3

[6] = tested on: MDR K. pneumoniae isolates (KP004, KP007, KP010); experiment: Inhibition of biofilm formation, crystal violet assay; format: cell-based, Klebsiella pneumoniae; conditions: in TSB
Protocol: The ability of peptide 3.1-PP4 to inhibit the biofilm formation by three P. aeruginosa isolates (PA002, PA004, Pa3) and by three K. pneumoniae isolates (KP004, KP007 and KP010) was assessed at concentrations equal to the MIC, 1/2 × MIC and 1/4 × MIC in tryptic soy broth – (TSB – Liofilchem s.r.l., Italy) using the crystal violet assay as reported by [Gomes et al. (2014)]. Two independent experiments were performed in triplicate.
Some of the MDR isolates of P. aeruginosa and K. pneumoniae were randomly selected to form biofilms in the absence (controls) and presence (at MIC, 1/2 × MIC and 1/4 × MIC) of the peptide 3.1-PP4. In this assay, the test compounds were used at sub-inhibitory concentrations, since if they had been present at the MIC or higher concentrations, bacteria would be killed before starting to produce the biofilms.
FIGURE 1 Biofilm biomass quantitation of biofilms formed in the presence of peptide 3.1-PP4. Biofilms of three MDR P. aeruginosa (PA002, Pa3, and PA004) and of three MDR K. pneumoniae (KP004, KP007, and KP010) were formed in the presence of the peptide at three different concentrations, MIC, 1/2 × MIC, and 1/4 × MIC. Control biofilms were grown in absence of the peptide. Two independent experiments were performed in triplicate. Error bars represent SD. […]

- MIC ([1]; broth microdilution in MHB2, CLSI, value in parentheses): 1.0 µM
- MIC ([1]; broth microdilution in cation-adjusted Mueller-Hinton broth (MHB2), CLSI, range tested 1–1024 μg/mL): 2 µg/mL
- MIC ([2]; ATCC 27853): 2.1 µM
- MIC ([2]; P. aeruginosa ATCC 27853, broth microdilution in MHB2, CLSI, range tested 1–1024 μg/mL): 4 µg/mL
- MIC ([2]; P. aeruginosa ATCC 27853, broth microdilution in MHB2, CLSI, value in parentheses): 2 µM
Structure (SMILES): CC(C)C[C@H](NC(=O)[C@H](Cc1c[nH]c2ccccc12)NC(=O)[C@H](CCCCN)NC(=O)[C@H](CC(C)C)NC(=O)[C@H](CC(C)C)NC(=O)[C@H](CCCCN)NC(=O)[C@@H](N)CCCCN)C(=O)N[C@@H](CC(C)C)C(=O)N[C@@H](CCCCN)C(=O)N[C@@H](CC(C)C)C(=O)N[C@@H](CC(C)C)C(=O)N[C@@H](CCCCN)C(=O)N[C@H](C(=O)N[C@H](C(=O)N[C@@H](CCCCN)C(=O)N[C@@H](CO)C(N)=O)[C@@H](C)O)[C@@H](C)O [Peptide 3.1-PP4] (H-KKLLKWLLKLLKTTKS-NH2; N-terminus assumed)
- IC50 [3]: 69 ± 5 µM
- % reduction in biofilm proliferation upon treatment ([4]; isolate PA002, 24 h preformed biofilm): 2.8%
- % reduction in biofilm proliferation upon treatment ([4]; isolate PA004, 24 h preformed biofilm): 21%
- % reduction in biofilm proliferation upon treatment ([5]; isolate KP004, 24 h preformed biofilm): 56%
- % reduction in biofilm proliferation upon treatment ([5]; isolate KP007, 24 h preformed biofilm): 34%
- % reduction in biofilm proliferation upon treatment ([5]; isolate KP010, 24 h preformed biofilm): 49%
- biofilm formation (crystal violet absorbance at 595 nm) ([6]; peptide at MIC, K. pneumoniae isolates): no biofilm was actually produced
- biofilm formation (crystal violet absorbance at 595 nm) ([6]; peptide at sub-inhibitory concentrations (1/2 and 1/4 of the MIC), vs control biofilm): able to reduce the biofilm formed
